First: CC(=O)Nc1cc2c(cc1[N+](=O)[O-])[C@@H](O)[C@H](Br)C(C)(C)O2 (relative stereo)
Second: CCSc1cc(N)c([N+](=O)[O-])cc1N
The melting point of the first is higher: 205 to 206 °C for the first, 142 °C for the second.

First: CCOc1nc2cccc(C(=O)O)c2n1Cc1ccc(-c2ccccc2-c2nnn[nH]2)cc1
Second: O=C(O)c1ccc(Cc2nc3ccccc3[nH]2)cc1
The melting point of the first is lower: 183 to 185 °C for the first, 265 to 267 °C for the second.

First: Cc1ccnc(-n2sc3ccccc3c2=O)c1
Second: Cc1ccc(N)c2nccc(Cl)c12
The melting point of the first is higher: 195 to 196 °C for the first, 104 to 107 °C for the second.

Compared with `CCCCn1c(=O)n(CC)c(=O)c2c1ncn2S(=O)(=O)c1ccc(C)cc1`, `COC(=O)[C@H](Cc1ccc(NC(=S)NCCN2CCOCC2)cc1)NC(=O)[C@@H]1CCCN1S(=O)(=O)c1ccc(C)cc1` is higher in melting point: 135 to 139 °C for the first, 158 to 168 °C for the second.

First: Oc1cccc(-c2c3ccccc3c(Br)c3sc4ccccc4c23)c1
Second: Cc1cccc(CCC(C)O)c1NC(=O)CC1c2ccccc2Oc2ccccc21 (stereo not drawn)
The melting point of the first is lower: 110 to 111 °C for the first, 167 to 168 °C for the second.

First: CC(C)(C)OC(=O)Nc1ccncc1C(=O)O
Second: CCOc1nccc(C(=O)OC)c1N
The melting point of the first is higher: 260 °C for the first, 59 to 60.5 °C for the second.

Compared with `CCN(CC)CCN1C(=O)C(NC(=O)c2ccccc2)C(C)(C)SC1=S` (stereo not drawn), `CCCN(CCC)C(=O)NC(CS)Cc1ccccc1` (single isomer, unassigned; (+)) is lower in melting point: 152 to 153 °C for the first, 68 °C for the second.

Compared with `N#Cc1c(NC(=O)C2CCCCC2)sc(-c2ccccc2)c1Br`, `CCCc1c(C#N)c2ccc(C(=O)O)cc2n1Cc1ccccc1Cl` is higher in melting point: 167 to 168 °C for the first, 240 to 241 °C for the second.

First: O=C(c1c[nH]nc1-c1ccccc1)C(CCN1CCC(O)(c2ccccc2)CC1)c1ccc(Cl)c(Cl)c1 (stereo not drawn)
Second: COc1ccccc1[C@H](C)C(=O)N1C[C@@H]2[C@H](C1)C(c1ccccc1)(c1ccccc1)C[C@H](O)[C@@]2(O)c1ccccc1OC
The melting point of the first is lower: 99 to 101 °C for the first, 178 to 180 °C for the second.

Compared with `CCCCCCCCCOC1C(O)C(CO)OC1n1cnc2c(=O)[nH]c(N)nc21` (stereo not drawn), `CC(C)Nc1nc(N)nc2c1ncn2C1C=CC(CO)C1` (stereo not drawn) is lower in melting point: 258 to 259 °C for the first, 87 to 90 °C for the second.

First: CC1CC2C3CCC4=CC(=O)C=CC4(C)C3=CCC2(C)C1C(=O)CN1CCN(c2cc(N3CCCC3)nc(NC34CC5CC(CC(C5)C3)C4)n2)CC1 (stereo not drawn)
Second: CC(C)OC(=O)c1cc(-n2c(=O)c3c(n(C)c2=O)CCCC3)ccc1Cl
The melting point of the first is higher: 155 to 172 °C for the first, 136 to 138 °C for the second.

First: C#CCn1c(Br)c(Br)c(Br)c1C#N
Second: N#CCc1cc(Cl)nc(N)n1
The melting point of the first is lower: 95 to 105 °C for the first, 110 to 115 °C for the second.

First: CC(C)(CS(C)(=O)=O)NC(=O)c1c(I)cccc1C(=O)Nc1ccc(S(F)(F)(F)(F)F)cc1Cl
Second: CCCC[C@H](NC(=O)[C@H](CC(C)C)NC(=O)c1c(F)cccc1C(F)(F)F)C(=O)CSCc1ccco1
The melting point of the first is higher: 196 to 198 °C for the first, 106 to 107 °C for the second.

First: COc1ccc2oc3cc(C#N)ccc3c(=O)c2c1
Second: COc1ccc(C(=O)Nc2nc(C)c(C(=O)NCc3ccccc3)s2)cc1
The melting point of the first is higher: 254 to 255 °C for the first, 203 to 204 °C for the second.

Compared with `CC(=O)c1cccc(NC=O)c1`, `O=Cc1c[nH]c2cccc(O)c12` is higher in melting point: 100 to 102 °C for the first, 196 to 200 °C for the second.

First: c1nc(Nc2ccc3[nH]ccc3c2)c2sc(-c3ccc(CNC4CC4)cc3)cc2n1
Second: COc1ccc(-c2ncn(CCCCCCCC(=O)O)c2-c2ccc(OC)cc2)cc1
The melting point of the first is higher: 176 to 180 °C for the first, 142 to 143 °C for the second.

Compared with `CN(Cc1cc(C(F)(F)F)cc(C(F)(F)F)c1)C(=O)c1cnc2ccccc2c1-c1ccccc1`, `NC(=O)CCCC1(c2ccccc2)CC(O)=C(SCc2ccccc2)C(=O)O1` (stereo not drawn) is lower in melting point: 96 to 97 °C for the first, 47.5 to 53 °C for the second.

First: CC(=NOCCOc1ccc(C(=O)O)c(O)c1)c1ccccc1
Second: CCCc1c(OCC(O)COc2ccc3c(=O)cc(CCC(=O)O)oc3c2CCC)ccc(C(C)=O)c1O (stereo not drawn)
The melting point of the first is higher: 149 to 150 °C for the first, 79 to 80 °C for the second.

Compared with `CC(=O)NC(Cc1cc(F)c(F)cc1F)Cc1nnc2n1ccc1ncnn12` (stereo not drawn), `CC(C)(C#N)c1cc(C(C)(C)C#N)cc(C(C)(C)n2cncn2)c1` is lower in melting point: 233 to 235 °C for the first, 185 to 188 °C for the second.

From a melting point compilation (Tetko et al.; mined from patent text by program, amines drawn as free bases though some values may be those of a salt)
